Experimental data reported in patent US8841346B2 (Massachusetts Institute of Technology, priority 2009, dated 2014).
Converted amounts (≈) assume the structure as drawn. “Also recorded” adds a separate entry of the source. Read-outs that look alike come from different tables or passages of the source.

How the values were obtained:
[1] = tested on: C57/BL6 WT mice; test: Contextual fear conditioning paradigm, memory formation in wild type mice; format: in vivo; details: for memory formation, tested 24 hours after training: 1 mg/kg for 10 days, WT mice, n=20 (FIG. 45B); for memory as measured by % freezing, contextual fear conditioning: HDAC inhibitor injected for 10 days, WT mice (FIG. 26)
Experimental: C57/BL6 WT mice were injected with vehicle or HDAC inhibitor for 10 days.
The total number of mice in each group is indicated in the bottom of each column of FIG. 45A. Mice were subsequently trained with contextual fear conditioning paradigm and tested 24 hours after training. […] After 10 day's dosing, mice were trained with contextual fear conditioning paradigm and tested 24 hours after training.

[2] = Solubility study of CI-994 HCl salt in saline; format: physicochemical
Experimental: 2. […] Shaken the tube manually. Observation: Solution becomes hazy. 4. Sonicated the above solution of step 3 for 5 minutes. Observation: Solution becomes white colored cloudy solution when 0.9% saline solution was added. […] 5. […] 6. Supernatant clear solution of step 5 was used for analysis.

[3] = tested on: mice; test: Extinction of fear memory under specific context; format: in vivo; details: 30 mg/kg one hour after retrieval, 3 days, n=10
Experimental: Mice were placed in a novel training box for 3 minutes and received tone for 30 seconds, followed by electrical shocks. […] Twenty-four hours after the second fear conditioning training, mice were exposed to the training chamber (context only) to retrieve the context dependant memory. […] One hour after injection, mice were placed back in the chamber for 3 min for the extinction training. The reactivation-extinction trials were performed once in each day for 3 days and freezing level was measured 5 days after the last training. (n=10 for each group).

[4] = tested on: mice; test: Fear extinction under the reconsolidation paradigm; format: in vivo; details: for spontaneous recovery of fear memory, freezing one month after initial training: reconsolidation paradigm; for fear extinction, freezing time of first trial in each day: reconsolidation training 4 days, n=20
Experimental: Mice were trained in contextual fear conditioning paradigm with two shocks. The mice subsequently received the reconsolidation training during the following 4 days. […] One hour after injection, mice were placed back to the same context for 3 minutes. The freezing time of the first trial in each day was measured and plotted.
Spontaneous recovery of the fear memory were tested one month after the initial fear memory training. […] (students t-Test).

[5] = tested on: HEK293 cells; test: Histone acetylation marks in HEK293 cells, Western blot; format: cell-based; details: whole HEK293 cells, 10 uM, 6 hour
[6] = tested on: HDAC2 overexpression mice
Experimental: Mice were trained using contextual fear conditioning paradigm on day 0.
For the memory reconsolidation paradigm, after the fear extinction training as described above, mice were housed in the home cage for one month. Mice were subsequently re-exposed to the conditioning box for 3 min, their freezing behavior measured.

[7] = tested on: WT C57/BL6 mice; test: Single dose before one 21 minute fear extinction trial; format: in vivo
Experimental: The mice were exposed to the fear-associated context for 21 minutes without pairing with shock. Freezing behavior was measured in the first 3 minutes and last 3 minutes during the extinction training, 24 hrs after extinction and 30 days after extinction. (n=20 for each group).

[8] = tested on: CK-p25 mice; test: Morris watermaze in CK-p25 mice; details: 1 mg/kg i.p. for 10 days
Experimental: All 3 groups of mice were trained with the standard Morris watermaze paradigm for 6 days. Mice were placed in the swimming pool for 60 seconds to search for the hidden platform in each trial. A total of 3 trials were performed in each day with 5 min inter-trial-intervals. The average time each group of mice spent to find the platform is plotted (escape latency).
The two groups of mice were trained in the Morris watermaze paradigm for 7 days as described above. On day 8, platform was removed and mice were tested for memory retrieval. The average time each group of mice spent in the target quadrant is plotted.

[9] = tested on: mice; test: Extinction of traumatic long-term memories; format: in vivo
Source text: 30 days after training, mice were exposed to two 3-min extinction sessions per day in the same context as they were trained. […] 30 days after fear conditioning to both the context (context A) and the cue (3×0.8 mA shock for 2 sec paired with a tone) mice were first exposed to the cue alone in a different context (context B) than the one in which training occurred (context A), and subsequently to two 3-min extinction sessions per day in the same context as they were trained (context A). After the end of this extinction session, mice were again exposed to context B, and their memory tested.

[10] = tested on: HDAC isoforms; test: Enzymatic inhibitory activity against known HDAC isoforms; format: biochemical, human; details: for time dependent enzymatic inhibitory activity against HDAC isoforms: 1-3 h preincubation
Source text: Comparison was also made to other known memory enhancers and their ability to inhibit the same HDAC enzymes.

[11] = Maximal solubility of CI-994 free base in solvents, HPLC; format: physicochemical
[12] = tested on: TCF/LEF luciferase reporter gene; test: TCF/LEF luciferase reporter gene in human neural progenitor cells; format: cell-based; details: read-out: EC50 of TCF/LEF luciferase reporter activation
[13] = oral dose level of less than 15 mg/m2 once a day, humans; cited from earlier work
[14] = tested on: Wild type C57/BL6 mice; test: Fear extinction under normal extinction paradigm; format: in vivo; details: DCS 15 mg/kg or CI-994 30 mg/kg, 21 minute extinction trial
Source text: Wild type C57/BL6 mice were trained with contextual fear conditioning paradigms.

[15] = tested on: mice; test: Three-day fear memory extinction trials with reminder shock; format: in vivo; details: 25 mg/kg
Experimental: Two groups of mice were trained in contextual fear conditioning for two times before a three-day-extinction trials. In each extinction day, mice were exposed to the training box without any shock for 3 minutes and returned back to their home-cage. […] The freezing behavior of each mouse in the training cage were monitored. To test the fear memory recovery, a reminder shock was given one hour after the last extinction trial.

[16] = tested on: CK-p25 mice; test: Local field potential recording in hippocampus CA1 of CK-p25 mice; format: in vivo; details: 1 mg/kg i.p. 10 days, recorded 10 days after treatment
[17] = target concentration 5 mg/ml, 0.9% NaCl

With `COc1cc2c(cc1OC)C(=O)C(CC1CCN(Cc3ccccc3)CC1)C2` (stereo not drawn) [Aricept, reference compound] the “memory formation, tested 24 hours after training” value [1] was “did not show any effects in memory formation”.

In the case of `CC(=O)Nc1ccc(C(=O)Nc2ccccc2N)cc1.Cl` [BROAD-SAI-140], the “improvement in solubility in aqueous solution versus CI-994” value [2] is reported as 35 ×, the “chemical and solution stability, HPLC” value ([2]; saline solution) is reported as at least 2 h and the “Amount of drug dissolved in mg/ml of saline, 2 hours” value [2, 17] is reported as 2.841 mg/mL. The “Amount of drug dissolved in mg/ml of saline, Initial” value [2, 17] was 2.852 mg/mL.

For `CC(=O)Nc1ccc(C(=O)Nc2ccccc2N)cc1` [CI-994, 4-(acetylamino)-N-(2-aminophenyl)benzamide], the “freezing level 5 days after the last training” value [3] was “enhanced extinction of fear memory under specific context”, the “spontaneous recovery of fear memory, freezing one month after initial training” value [4] was “significantly lower freezing level than the vehicle group” and the “fear extinction, freezing time of first trial in each day” value [4] was “significantly facilitated fear extinction”. For the same compound, the “acetylation levels over DMSO controls (anti-acetyl H4K12)” value [5] was “increased acetylation levels over DMSO controls”, the “freezing level after 5 extinction trials” value ([6]; HDAC2 overexpressing mice, 30 mg/kg i.p., 2 doses) was 30% and the “freezing levels after one month of spontaneous recovery” value ([6]; HDAC2 overexpression mice) was “significantly reduced the freezing levels”. For the same compound, the “fear memory extinction in WT mice” value ([6]; WT mice, 30 mg/kg i.p.) was “extinct significantly faster than the vehicle treated group”, the “spontaneous recovery of fear memory 30 days after extinction training” value ([7]; one dose i.p. 30 mg/kg) was “not evident” and the “freezing behavior after single extinction exposure” value ([7]; one dose i.p. 30 mg/kg one hour before 21 minute extinction trial, n=20) was “effective reduction in freezing”. The “time spent in the target quadrant, memory retrieval on day 8” value [8] was “rescued the memory retrieval deficits”, the “escape latency (time to find hidden platform)” value ([8]; 6 days training) was “showed similar learning curve as control mice” and the “memory formation, tested 24 hours after training” value [1] was “significantly increased memory formation”. For the same compound, the “memory as measured by % time freezing” value ([1]; 1 mg/kg, every day and alternate day dosing schedule) was “equally effective”, the “memory as measured by % time freezing” value ([1]; 30 mg/kg every day for 10 days) was “improves the memory of mice” and the “memory as measured by % time freezing” value ([1]; 30 mg/kg, alternate day dosing schedule) was “equally effective”. For the same compound, the “memory as measured by % time freezing, dose response” value ([1]; 10, 5, and 1 mg/kg every day for 10 days) was “efficacious as a memory enhancer at all doses”, the “memories formed in a different context (context B)” value ([9]; 5 mg/kg (FIG. 49E)) was “did not affect memories formed in a context different from the extinction context” and the “freezing level during extinction sessions 30 days after training” value ([9]; 5 mg/kg, p<0.001 (FIG. 49B)) was “significantly reduced the animals' freezing level”. For the same compound, the “freezing levels 30 days after the last extinction trial” value ([9]; 5 mg/kg, p<0.001 (FIG. 49C)) was “still show reduced freezing levels compared to vehicle-treated ones”, the “freezing level in the extinction context (context A)” value ([9]; 5 mg/kg, p<0.05 (FIG. 49F)) was “exclusively reduced the animals' freezing level in the context in which the extinction had occurred” and the “freezing levels 30 days after last extinction trials, extinguished context” value ([9]; 5 mg/kg, p<0.05 (FIG. 49G)) was “still show reduced freezing levels compared to vehicle-treated ones”. The “enzymatic inhibitory activity against HDAC isoforms (inhibition profile)” value [10] was “primarily Class I HDAC inhibitors”, the “time dependent enzymatic inhibitory activity against HDAC isoforms” value [10] was “primarily Class I HDAC inhibitors” and the “enzymatic inhibitory activity against HDAC isoforms (inhibition profile)” value ([10]; listed as CI994) was “inhibits HDAC1, 2 and 3”. The “Conc. in Vehicles, DMA” value ([11]; maximal solubility, free base) was 246040 µg/mL, the “Conc. in Vehicles, DMSO” value ([11]; maximal solubility, free base) was 266150 µg/mL and the “Conc. in Vehicles, EtOH” value ([11]; maximal solubility, free base) was 2120 µg/mL. For the same compound, the “Conc. in Vehicles, NMP” value ([11]; maximal solubility, free base) was 243280 µg/mL, the “Conc. in Vehicles, Saline” value ([11]; maximal solubility, free base, 0.9% NaCl, at least 2 h) was 80 µg/mL and the solubility at 2 h ([11]; saline (0.9% NaCl), saline or isotonic, read-out: Conc. in Vehicles, Saline) was 80 µg/mL (≈ 297 µM). The EC50 [12] was about 7 µM, the “serum AUC, average (variance as percentage of the mean)” value [13] was 9500(62.7%) ng·hr/mL and the “serum Cmax, average (variance as percentage of the mean)” value [13] was 570(25.1%) ng/mL. The “freezing 24 hours after the extinction training” value [14] was “showed significant reduction in freezing”, the “decay of freezing time before and after injection, extinction day 1” value [15] was “faster decay of freezing time” and the “decay of freezing time before and after injection, extinction day 2” value [15] was “faster decay of freezing time”. For the same compound, the “extinction of fear memory, freezing during first 3-min-exposure in each day” value ([15]; N=8) was “much faster”, the “freezing time on the third day” value ([15]; p<0.05) was “significantly less freezing time than the control group” and the “freezing level 24 hours after the reminder shock” value ([15]; versus control group) was “No significant difference”. For the same compound, the “LFP oscillation power in area CA1 (theta and gamma band)” value [16] was “significantly increased the oscillation power”.

For `N[C@@H]1CONC1=O` [DCS, D-cycloserine, reference compound], the “spontaneous recovery of fear memory, freezing one month after initial training” value [4] was “no significant difference comparing to the vehicle group”, the “fear extinction, freezing time of first trial in each day” value [4] was “but not DCS, significantly facilitated fear extinction” and the “freezing 24 hours after the extinction training” value [14] was “showed significant reduction in freezing”.

In the case of `Nc1ccccc1NC(=O)c1ccc(CNc2nccc(-c3cccnc3)n2)cc1` [MGCD0103, reference compound], the “memory as measured by % freezing, contextual fear conditioning” value (“memory as measured by % freezing” for short) [1] is reported as “not efficacious” and the “memory as measured by % freezing” value ([1]; listed as MGC-D0103) is reported as “did not result in improved cognition”.

With `Nc1ccccc1NC(=O)c1ccc(CNC(=O)OCc2cccnc2)cc1` [MS-275, reference compound] the “memory as measured by % freezing” value [1] was “not efficacious; also recorded: did not result in improved cognition”.

For `O=C(CCCCCCC(=O)Nc1ccccc1)NO` [SAHA, reference compound], the “acetylation levels over DMSO controls (anti-acetyl H4K12)” value [5] was “increased acetylation levels over DMSO controls”.

In the case of `Nc1ccc(C(=O)Nc2ccccc2N)cc1` [dinaline], the “enzymatic inhibitory activity against HDAC isoforms (inhibition profile)” value [10] is reported as “primarily Class I HDAC inhibitors” and the “time dependent enzymatic inhibitory activity against HDAC isoforms” value [10] is reported as “primarily Class I HDAC inhibitors”.
